Legend:
mP–gp = target: T1, mP–gp (Mus musculus, UniProt P21447); experiment: Photolabeling of P–gp with [125I]-IAAP / IAAP displacement; format: binding; conditions: for Ki: Equation (S2), total concentrations, native membranes 1.0 mg/mL, read-out: dissociation constant, competitive inhibition of IAAP binding
T1 construct: made in house; host or cells: High-Five insect cells (Invitrogen), recombinant baculovirus; total membrane vesicles
Description: The native membranes of High-Five insect cells expressing mP–gp (1.0 mg/mL) were incubated at room temperature with the indicated concentrations of the inhibitor for 5 min. IAAP (5 to 7 nM) was later added, and the reaction mixture was further incubated for 5 min under subdued light. The samples were photocross-linked with 366 nm UV light for 10 min at room temperature, followed by electrophoresis and quantification, as described previously. The raw data are shown in the Supplementary Information (Figure S4). The results were first analyzed with the usual equation, considering the total concentration of IAAP and NBD amphiphile, as well as competitive inhibition of IAAP binding, see Supplementary Information (Equation (S2)). The dissociation constant considered for IAAP was taken from the literature, 412 nM [15]. The results were also analyzed with a formalism derived in this manuscript considering the distribution of the NBD amphiphile in the distinct environments (aqueous phase, lipid bilayer, and P–gp), the distribution of IAAP between the aqueous media and P–gp, and several equal and independent binding sites in P–gp’s binding pocket, Equation (10).
In this assay, in addition to the binding of the NBD amphiphiles to P–gp binding pocket, it is also necessary to consider the binding of IAAP. The concentration of IAAP used in the assay (5 nM) is several orders of magnitude smaller than that of the amphiphiles in study, and it is also smaller than the total concentration of P–gp (59 nM). Therefore, Equation (8) may be used to calculate the concentration of free ligand and protein. The fraction of IAAP bound to P–gp may then be calculated from Equation (10), where P^* is the concentration of P–gp available for IAAP binding. (10) IP/IT=−b−b^2−4ac/2aa=1; b=−1+KdIAAP/IT+P^*/IT; c=P^*/IT
The number of binding sites in P–gp binding pocket was varied from 1 to 5, and three situations were considered in the analysis: (i) full inhibition of IAAP binding when at least one NBD amphiphile is in the P–gp binding pocket ( i≥1 ), corresponding to P^*=P; (ii) inhibition of IAAP binding only when P–gp is fully saturated ( i=n ), corresponding to P^*=P+∑i=1n−1PLi; and (iii) an intermediate situation with IAAP displacement for i≥n−1 , corresponding to P^*=P+∑i=1n−2PLi .
The displacement of IAAP from P–gp binding pocket was calculated from Equation (11), where IP0 is the concentration of IAAP bound to P–gp in the absence of the NBD amphiphiles. (11) IAAP displacement %=100IP0−IP/IP0

[1] = cited from earlier work

T1 sequence (P21447 whole entry): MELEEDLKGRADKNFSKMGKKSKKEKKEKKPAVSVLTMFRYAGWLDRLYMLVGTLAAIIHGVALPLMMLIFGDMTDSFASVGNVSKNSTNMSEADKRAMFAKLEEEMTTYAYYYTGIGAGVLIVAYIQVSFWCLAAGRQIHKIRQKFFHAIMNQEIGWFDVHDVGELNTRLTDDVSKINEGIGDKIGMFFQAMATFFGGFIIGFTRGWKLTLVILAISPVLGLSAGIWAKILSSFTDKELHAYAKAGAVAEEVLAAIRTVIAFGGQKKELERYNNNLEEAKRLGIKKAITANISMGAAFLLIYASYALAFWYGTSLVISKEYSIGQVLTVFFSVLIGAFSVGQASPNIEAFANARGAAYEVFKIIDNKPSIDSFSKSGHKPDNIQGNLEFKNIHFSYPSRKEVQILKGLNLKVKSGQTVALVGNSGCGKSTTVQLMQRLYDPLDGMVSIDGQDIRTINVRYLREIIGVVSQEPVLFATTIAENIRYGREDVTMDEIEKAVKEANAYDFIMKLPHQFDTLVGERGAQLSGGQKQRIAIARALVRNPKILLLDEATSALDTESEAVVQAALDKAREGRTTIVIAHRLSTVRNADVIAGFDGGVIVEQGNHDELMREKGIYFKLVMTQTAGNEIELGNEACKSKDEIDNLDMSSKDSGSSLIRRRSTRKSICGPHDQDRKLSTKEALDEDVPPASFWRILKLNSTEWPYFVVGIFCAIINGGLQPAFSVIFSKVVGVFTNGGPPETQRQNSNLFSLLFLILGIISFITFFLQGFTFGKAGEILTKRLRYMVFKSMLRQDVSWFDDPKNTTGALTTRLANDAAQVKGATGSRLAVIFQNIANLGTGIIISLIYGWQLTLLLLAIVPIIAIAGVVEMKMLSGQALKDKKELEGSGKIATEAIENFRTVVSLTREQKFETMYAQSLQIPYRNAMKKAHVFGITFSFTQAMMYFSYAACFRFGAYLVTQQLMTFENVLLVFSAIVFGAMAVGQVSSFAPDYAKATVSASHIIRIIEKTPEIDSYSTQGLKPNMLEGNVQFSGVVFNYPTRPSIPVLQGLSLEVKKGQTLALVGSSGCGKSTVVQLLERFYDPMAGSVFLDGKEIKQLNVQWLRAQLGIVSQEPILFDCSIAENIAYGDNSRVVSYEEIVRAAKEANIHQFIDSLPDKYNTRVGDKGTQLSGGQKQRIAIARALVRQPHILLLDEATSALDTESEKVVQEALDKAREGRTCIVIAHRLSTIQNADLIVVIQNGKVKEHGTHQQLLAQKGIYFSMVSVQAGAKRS

Structure (SMILES) | Ki (mP–gp) | LogKP, partition coefficient for POPC bilayers [1] | LogKP, association with POPC bilayers [1] | number of binding sites n giving agreement between the two estimates of the partition coefficient (mP–gp; re-analysis of IAAP displacement, IAAP displaced for i ≥ n−1)
CCCCCCCCCCCCCC(=O)OCC(O)COP(=O)(O)OCCNc1ccc([N+](=O)[O-])c2nonc12 (stereo not shown) [NBD–LysoMPE] | 23 µM | 4.2 | – | –
CCCCCCCCNc1ccc([N+](=O)[O-])c2nonc12 [NBD–C8] | 4 µM | – | 4.67 | –
CCCCNc1ccc([N+](=O)[O-])c2nonc12 [NBD–C4] | 14 µM | – | 2.99 | 5

Source: PMC9862096, “Interaction of a Homologous Series of Amphiphiles with P-glycoprotein in a Membrane Environment—Contributions of Polar and Non-Polar Interactions” (Pharmaceutics, 2023)
